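The compound was tested at five concentrations on cells cultured in 96-well plates, with a 48-hour exposure period. At the TGI there is no net growth.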
Experiments:
Experiment in all cases: growth of human tumour cells (NCI), 48 h
[1] = test system: PC-3 prostate
[2] = test system: LOX IMVI melanoma
[3] = test system: DLD-1 colon
[4] = test system: HCT-15 colon
[5] = test system: EKVX NSCLC
[6] = test system: MDA-N
[7] = test system: MCF7 breast
[8] = test system: M19-MEL melanoma
[9] = test system: DMS 273 small cell lung
[10] = test system: HOP-92 NSCLC
[11] = test system: SN12C renal
[12] = test system: K-562 leukemia
[13] = test system: SF-295 CNS
[14] = test system: HL-60(TB) leukemia
[15] = test system: HOP-62 NSCLC
[16] = test system: NCI-H226 lung
[17] = test system: KM12 colon
[18] = test system: MOLT-4 leukemia
[19] = test system: TK-10 renal
[20] = test system: UACC-62 melanoma
[21] = test system: 786-0 renal
[22] = test system: LXFL 529 NSCLC
[23] = test system: HS 578T breast
[24] = test system: SNB-75 CNS
[25] = test system: MDA-MB-435
[26] = test system: NCI/ADR-RES ovarian
[27] = test system: U251 CNS
[28] = test system: NCI-H522 lung
[29] = test system: OVCAR-3 ovarian
[30] = test system: SF-539 CNS
[31] = test system: UACC-257 melanoma
[32] = test system: DMS 114 small cell lung
[33] = test system: MALME-3M melanoma
[34] = test system: HT29 colon
[35] = test system: SR leukemia
[36] = test system: A549 NSCLC
[37] = test system: SK-MEL-28 melanoma
[38] = test system: CCRF-CEM leukemia
[39] = test system: CAKI-1 renal
[40] = test system: SF-268 CNS
[41] = test system: SK-MEL-2 melanoma
[42] = test system: UO-31 renal
[43] = test system: DU-145 prostate
[44] = test system: COLO 205 colon
[45] = test system: RXF 393 renal
[46] = test system: SNB-19 CNS
[47] = test system: OVCAR-5 ovarian
[48] = test system: OVCAR-8 ovarian
[49] = test system: SK-MEL-5 melanoma
[50] = test system: SNB-78 CNS
[51] = test system: M14 melanoma
[52] = test system: HCT-116 colon
[53] = test system: MDA-MB-231 breast
[54] = test system: NCI-H460 lung
[55] = test system: IGROV1 ovarian
[56] = test system: RPMI-8226 leukemia
[57] = test system: HCC-2998 colon
[58] = test system: HOP-18 NSCLC
[59] = test system: A498 renal
[60] = test system: NCI-H23 lung
[61] = test system: T-47D breast
[62] = test system: BT-549 breast
[63] = test system: SW-620 colon
[64] = test system: OVCAR-4 ovarian
[65] = test system: XF 498 CNS
[66] = test system: ACHN renal
[67] = test system: SK-OV-3 ovarian
[68] = test system: KM20L2 colon

With COC(=O)/C(=C/c1ccc(OC)cc1)c1cc(OC)c(OC)c(OC)c1 the TGI [1] was greater than 100 µM, the TGI [2] was greater than 100 µM and the TGI [3] was greater than 100 µM. It also gave a TGI [4] greater than 100 µM, a TGI [5] greater than 100 µM and a TGI [6] of 0.43 µM. The TGI [7] was greater than 100 µM, the TGI [8] was greater than 100 µM and the TGI [9] was greater than 100 µM. It also gave a TGI [10] greater than 55.9 µM, a TGI [11] greater than 100 µM and a TGI [12] greater than 58.4 µM. For the same molecule, the TGI [13] was 8.02 µM, the TGI [14] was 3.06 µM and the TGI [15] was greater than 51.2 µM. For the same molecule, the TGI [16] was 42.3 µM, the TGI [17] was 71 µM and the TGI [18] was greater than 97.5 µM. It also gave a TGI [19] greater than 100 µM, a TGI [20] of 37.4 µM and a TGI [21] greater than 86 µM. The TGI [22] was greater than 100 µM, the TGI [23] was 5.69 µM and the TGI [24] was 5.77 µM. For the same molecule, the TGI [25] was 0.477 µM, the TGI [26] was greater than 100 µM and the TGI [27] was 39 µM. For the same molecule, the TGI [28] was 4.58 µM, the TGI [29] was 2.63 µM and the TGI [30] was 6.96 µM. The TGI [31] was greater than 84.3 µM, the TGI [32] was greater than 23.3 µM and the TGI [33] was greater than 100 µM. For the same molecule, the TGI [34] was greater than 74.9 µM, the TGI [35] was greater than 19.6 µM and the TGI [36] was greater than 100 µM. The TGI [37] was greater than 100 µM, the TGI [38] was greater than 55.7 µM and the TGI [39] was greater than 100 µM. For the same molecule, the TGI [40] was greater than 79.1 µM, the TGI [41] was greater than 100 µM and the TGI [42] was 74.9 µM. For the same molecule, the TGI [43] was 8.56 µM, the TGI [44] was 13.7 µM and the TGI [45] was 3.38 µM. It also gave a TGI [46] of 98 µM, a TGI [47] greater than 100 µM and a TGI [48] greater than 100 µM. For the same molecule, the TGI [49] was greater than 39.3 µM, the TGI [50] was greater than 100 µM and the TGI [51] was greater than 96.3 µM. It also gave a TGI [52] of 55.3 µM, a TGI [53] greater than 100 µM and a TGI [54] of 45.9 µM. The TGI [55] was greater than 100 µM, the TGI [56] was 69.5 µM and the TGI [57] was greater than 59 µM. The TGI [58] was greater than 100 µM, the TGI [59] was greater than 39 µM and the TGI [60] was 26.8 µM. The TGI [61] was greater than 100 µM, the TGI [62] was greater than 100 µM and the TGI [63] was greater than 100 µM. The TGI [64] was greater than 100 µM, the TGI [65] was 83.7 µM and the TGI [66] was greater than 100 µM. The TGI [67] was 40.4 µM.
In the case of COC(=O)C1=C(C)C(=O)C2(CCCCCC2C(=O)OC)C1 (configuration not stated), the TGI [3] is reported as greater than 100 µM, the TGI [4] is reported as greater than 100 µM and the TGI [5] is reported as greater than 100 µM. It also gave a TGI [8] greater than 100 µM, a TGI [9] greater than 100 µM and a TGI [10] greater than 100 µM. It also gave a TGI [11] greater than 100 µM, a TGI [12] greater than 100 µM and a TGI [13] greater than 100 µM. For the same molecule, the TGI [14] was greater than 100 µM, the TGI [15] was greater than 100 µM and the TGI [16] was greater than 100 µM. It also gave a TGI [17] greater than 100 µM, a TGI [18] greater than 100 µM and a TGI [19] greater than 100 µM. The TGI [20] was greater than 100 µM, the TGI [21] was greater than 100 µM and the TGI [22] was greater than 100 µM. The TGI [24] was greater than 100 µM, the TGI [27] was greater than 100 µM and the TGI [28] was greater than 100 µM. For the same molecule, the TGI [68] was greater than 100 µM, the TGI [30] was greater than 100 µM and the TGI [31] was greater than 100 µM. It also gave a TGI [32] greater than 100 µM, a TGI [33] greater than 100 µM and a TGI [34] greater than 100 µM. The TGI [35] was greater than 100 µM, the TGI [36] was greater than 100 µM and the TGI [37] was greater than 100 µM. For the same molecule, the TGI [38] was greater than 100 µM, the TGI [39] was greater than 100 µM and the TGI [40] was greater than 100 µM. It also gave a TGI [41] greater than 100 µM, a TGI [42] greater than 100 µM and a TGI [44] greater than 100 µM. For the same molecule, the TGI [45] was greater than 100 µM, the TGI [46] was greater than 100 µM and the TGI [47] was greater than 100 µM. It also gave a TGI [48] greater than 100 µM, a TGI [49] greater than 100 µM and a TGI [50] greater than 100 µM. It also gave a TGI [51] greater than 100 µM, a TGI [52] greater than 100 µM and a TGI [54] greater than 100 µM. It also gave a TGI [55] greater than 100 µM, a TGI [56] greater than 100 µM and a TGI [57] greater than 100 µM. For the same molecule, the TGI [58] was greater than 100 µM, the TGI [59] was greater than 100 µM and the TGI [60] was greater than 100 µM. The TGI [63] was greater than 100 µM, the TGI [64] was greater than 100 µM and the TGI [66] was greater than 100 µM. The TGI [67] was greater than 100 µM.

Source: PubChem BioAssay (NCI)
